pIC50: −log10 of the molar value.
Biological target: BRD4-BD1 (Homo sapiens (Human), UniProt O60885)
Assay: BRD4-H4 Tetraacetylated Peptide Inhibition AlphaScreen
Format: binding
Settings: GST-BRD4-BD1 (aa 44-168), biotinylated Acetyl-Histone H4 peptide
Procedure: Compounds are diluted in serial dilution 1:5 in assay buffer from 10 mM stock in DMSO (100 μM start concentration) in white OptiPlate-384 (PerkinElmer). […] Subsequently, 6 μl of premixed AlphaLISA Glutathione Acceptor Beads and AlphaScreen Streptavidin Donor Beads from PerkinElmer (in assay buffer at a concentration of 10 μg/ml each) are added and the samples are incubated for 30 min at RT in the dark (shaking 300 rpm). Afterwards, the signal is measured in a PerkinElmer Envision HTS Multilabel Reader using the AlphaScreen protocol from PerkinElmer. […] Negative control values are entered as low basis value when using the software GraphPad Prism for calculations. Furthermore, a positive control (probe molecule JQ1+ with protein/peptide mix) is pipetted. Determination of IC50 values are carried out using GraphPad Prism 3.03 software (or updates thereof).

pIC50 | SMILES
7.38 | Cc1cc(-c2nc3cnc(OCC4CC4)cc3n2C(C)c2ccccn2)cn(C)c1=O (racemic) [II-21, 5-[6-Cyclopropylmethoxy-1-(1-pyridin-2-yl-ethyl)-1H-imidazo[4,5-c]pyridin-2-yl]-1,3-dimethyl-1H-pyridin-2-one]
7.92 | Cc1cc(-c2nc3ccc(N4CCN(C)CC4)cc3n2Cc2ccccc2)cn(C)c1=O [Example I-1, 5-[1-Benzyl-6-(4-methylpiperazin-1-yl)-1H-1,3-benzodiazol-2-yl]-1,3-dimethyl-1,2-dihydropyridin-2-one]
5.81 | Cn1cc(-c2nc3ccccc3n2Cc2ccccc2)ccc1=O [Example I-2]
6.96 | Cc1cc(-c2nc3ccc(N4CCOCC4)cc3n2Cc2ccccc2)c[nH]c1=O [Example I-3]
6.29 | Cn1cc(-c2nc3ccc(N4CCOCC4)cc3n2Cc2ccccc2)ccc1=O [Example I-4]
6.26 | CN1CCN(c2ccc3nc(-c4ccc(=O)n(C)c4)n(Cc4ccccc4)c3c2)CC1 [Example I-5]
7.72 | Cc1cc(-c2nc3ccc(N4CCOCC4)cc3n2Cc2ccccc2)cn(C)c1=O [Example I-6]
7.02 | Cc1cc(-c2nc3ccc(N4CCN(C)CC4)cc3n2Cc2ccccc2)c[nH]c1=O [Example I-7]
6.22 | Cc1cc(-c2nc3ccccc3n2Cc2ccccc2)c[nH]c1=O [Example I-8]
7.24 | Cc1cc(-c2nc3ccc(N)cc3n2Cc2ccccc2)cn(C)c1=O [Example I-9, 5-(6-Amino-1-benzyl-1H-benzoimidazol-2-yl)-1,3-dimethyl-1H-pyridin-2-one]
7.31 | CCn1cc(-c2nc3ccc(N4CCN(C)CC4)cc3n2Cc2ccccc2)cc(C)c1=O [Example I-10]
7.92 | Cc1cc(-c2nc3ccc(N4CCN(C)CC4)cc3n2Cc2ccccc2)nn(C)c1=O [Example I-11]
7.74 | Cc1cc(-c2nc3ccc(F)cc3n2Cc2ccccc2)cn(C)c1=O [Example I-12, 5-(1-Benzyl-6-fluoro-1H-benzoimidazol-2-yl)-1,3-dimethyl-1H-pyridin-2-one]
7.17 | Cc1cc(-c2nc3ccccc3n2Cc2ccccc2)cn(C)c1=O [Example I-13]
7.44 | Cc1nc(-c2nc3ccc(N4CCN(C)CC4)cc3n2Cc2ccccc2)cn(C)c1=O [Example I-14]
5.86 | Cn1nc(-c2nc3ccccc3n2Cc2ccccc2)ccc1=O [Example I-15]
6.72 | CN1CCN(c2ccc3nc(-c4ccc(=O)n(C)n4)n(Cc4ccccc4)c3c2)CC1 [Example I-16]
5.95 | Cn1cc(-c2nc3ccccc3n2Cc2ccccc2)ncc1=O [Example I-18]
6.53 | Cn1cc(-c2nc3ccc(N4CCOCC4)cc3n2Cc2ccccc2)ncc1=O [Example I-19]
6.92 | CN1CCN(c2ccc3nc(-c4cn(C)c(=O)cn4)n(Cc4ccccc4)c3c2)CC1 [Example I-20]
6.70 | Cc1nc(-c2nc3ccccc3n2Cc2ccccc2)cn(C)c1=O [Example I-21]
7.36 | COc1ccc2nc(-c3cc(C)c(=O)n(C)c3)n(Cc3ccccc3)c2c1 [Example I-22]
6.89 | Cc1cc(-c2nc3ccc(C(=O)N(C)C)cc3n2Cc2ccccc2)cn(C)c1=O [Example I-24]

pIC50 | SMILES
7.14 | Cc1cc(-c2nc3ccc(C4CCOCC4)cc3n2Cc2ccccn2)cn(C)c1=O [Example I-25]
7.02 | COC[C@H](C)n1c(-c2cc(C)c(=O)n(C)c2)nc2ccc(C3CCOCC3)cc21 [Example I-26]
6.99 | Cc1cc(-c2nc3ccc(C4CCOCC4)cc3n2[C@@H](C)c2ccccn2)cn(C)c1=O [Example I-27]
6.76 | COC[C@H](C)n1c(-c2cc(C)c(=O)n(C)c2)nc2ccc(C(C)C)cc21 [Example I-28]
6.74 | Cc1cc(-c2nc3ccc(C(C)C)cc3n2[C@@H](C)c2ccccn2)cn(C)c1=O [Example I-29]
7.20 | Cc1cc(-c2nc3ccc(C4(C(F)(F)F)CC4)cc3n2Cc2ccccn2)cn(C)c1=O [Example I-30]
7.12 | COC[C@H](C)n1c(-c2cc(C)c(=O)n(C)c2)nc2ccc(N3CCOC[C@@H]3C)cc21 [Example I-31]
6.57 | COC[C@H](C)n1c(-c2cc(C)c(=O)n(C)c2)nc2ccc(N)cc21 [Example I-32]
7.33 | Cc1cc(-c2nc3ccc(C4CN(C)CCO4)cc3n2[C@@H](C)c2ccccc2)nn(C)c1=O (stereo partly shown) [Example I-33]
7.31 | Cc1cc(-c2nc3ccc(C4CN(C)CCO4)cc3n2[C@@H](C)c2ccccc2)cn(C)c1=O (stereo partly shown) [Example I-34]
7.64 | Cc1cc(-c2nc3ccc(C4CCN(C)C(=O)C4)cc3n2[C@@H](C)c2ccccc2)cn(C)c1=O (stereo partly shown) [Example I-35]
7.19 | COC[C@H](C)n1c(-c2cc(C)c(=O)n(C)n2)nc2ccc(N3CCOC[C@@H]3C)cc21 [Example I-36]
6.99 | Cc1cc(-c2nc3ccc(C4(C(F)(F)F)CC4)cc3n2[C@@H](C)c2ccccc2)cn(C)c1=O [Example I-37]
7.49 | Cc1cc(-c2nc3ccc(C4CCN(C)C(=O)C4)cc3n2[C@@H](C)c2ccccc2)nn(C)c1=O (stereo partly shown) [Example I-38]
6.84 | CC1CC(=O)NN=C1c1ccc2c(c1)nc(-c1cc(N)c(=O)n(C)c1)n2Cc1ccccc1 (stereo not shown) [Example V-1, 6-[2-(5-Amino-1-methyl-6-oxo-1,6-dihydro-pyridin-3-yl)-1-benzyl-1H-benzoimidazol-5-yl]-5-methyl-4,5-dihydro-2H-pyridazin-3-one]
5.87 | Cn1cc(-c2nc3ccccc3n2Cc2ccccc2)cc(N)c1=O [Example V-2, 3-amino-5-(1-benzyl-1H-benzoimidazol-2-yl)-1-methyl-1H-pyridin-2-one]
7.14 | CN1CCN(c2ccc3nc(-c4cc(N)c(=O)n(C)c4)n(Cc4ccccc4)c3c2)CC1 [Example V-3]
6.88 | Cn1cc(-c2nc3ccc(N4CCOCC4)cc3n2Cc2ccccc2)cc(N)c1=O [Example V-4]
7.72 | Cc1cc(-c2nc3cnc(N4CCN(C)CC4)cc3n2Cc2ccccc2)cn(C)c1=O [II-1]
7.27 | Cc1cc(-c2nc3cnc(N4CCOCC4)cc3n2Cc2ccccn2)cn(C)c1=O [II-2]
7.74 | Cc1cc(-c2nc3cnc(N4CCOCC4)cc3n2Cc2ccccc2)cn(C)c1=O [II-3, 5-(1-Benzyl-6-morpholin-4-yl-1H-imidazo[4,5-c]pyridin-2-yl)-1,3-dimethyl-1H-pyridin-2-one]
7.26 | CCn1cc(-c2nc3cnc(N4CCN(C)CC4)cc3n2Cc2ccccc2)cc(C)c1=O [II-4]
7.92 | Cc1cc(-c2nc3cnc(N4CCN(C)CC4)cc3n2Cc2ccccc2)nn(C)c1=O [II-5]

pIC50 | SMILES
6.79 | CCn1cc(-c2nc3cnc(N4CCOCC4)cc3n2Cc2ccccc2)cc(C)c1=O [II-6]
6.76 | Cc1cc(-c2nc3cnc(Cl)cc3n2Cc2ccccc2)cn(C)c1=O [II-7, 5-(1-Benzyl-6-chloro-1H-imidazo[4,5-c]pyridin-2-yl)-1,3-dimethyl-1H-pyridin-2-one]
6.83 | Cc1cc(-c2nc3cnccc3n2Cc2ccccc2)cn(C)c1=O [II-8]
7.52 | Cc1cc(-c2nc3cnc(N(C)C)cc3n2Cc2ccccc2)cn(C)c1=O [II-9]
7.35 | Cc1nc(-c2nc3cnc(N4CCN(C)CC4)cc3n2Cc2ccccc2)cn(C)c1=O [II-10]
6.99 | COC[C@H](C)n1c(-c2cc(C)c(=O)n(C)c2)nc2cnc(N3CCOC[C@@H]3C)cc21 [II-11]
7.31 | Cc1nc(-c2nc3cnc(N4CCOCC4)cc3n2Cc2ccccc2)cn(C)c1=O [II-12]
6.99 | Cc1cc(-c2nc3cnc(-n4ccnc4)cc3n2Cc2ccccc2)cn(C)c1=O [II-13, 5-(1-Benzyl-6-imidazol-1-yl-1H-imidazo[4,5-c]pyridin-2-yl)-1,3-dimethyl-1H-pyridin-2-one]
7.20 | Cc1cc(-c2nc3cnc(N4CCOCC4)cc3n2Cc2ccncc2)cn(C)c1=O [II-14]
7.38 | Cc1cc(-c2nc3cnc(N4CCOC[C@@H]4C)cc3n2Cc2ccccc2)cn(C)c1=O [II-15]
7.17 | Cc1cc(-c2nc3cnc(N)cc3n2Cc2ccccc2)cn(C)c1=O [II-16, 5-(6-Amino-1-benzyl-1H-imidazo[4,5-c]pyridin-2-yl)-1,3-dimethyl-1H-pyridin-2-one]
6.80 | Cc1cc(-c2nc3cnc(N4CCOC[C@@H]4C)cc3n2Cc2ccccn2)cn(C)c1=O [II-17]
6.63 | Cc1cc(-c2nc3cnc(N4CCOCC4)cc3n2[C@H](C)c2ccccc2)cn(C)c1=O [II-18]
7.57 | Cc1cc(-c2nc3cnc(N4CCOCC4)cc3n2[C@@H](C)c2ccccc2)cn(C)c1=O [II-19]
7.48 | Cc1cc(-c2nc3cnc(N4CCOCC4)cc3n2Cc2cccnc2)cn(C)c1=O [II-20]
7.47 | Cc1cc(-c2nc3cnc(N4CCN(C)CC4)cc3n2C(C)c2ccccn2)cn(C)c1=O (stereo not shown) [II-22]
7.48 | Cc1cc(-c2nc3cnccc3n2Cc2ccc(Cl)cc2)cn(C)c1=O [II-23]
7.42 | Cc1cc(-c2nc3cnc(C(C)C)cc3n2[C@@H](C)c2ccccc2)cn(C)c1=O [II-24]
8.10 | Cc1cc(-c2nc3cnc(C4CCOCC4)cc3n2[C@@H](C)c2ccccc2)nn(C)c1=O [II-25]
7.80 | Cc1cc(-c2nc3cnc(C4CCOCC4)cc3n2[C@@H](C)c2ccccc2)cn(C)c1=O [II-26]
6.78 | Cc1cc(-c2nc3cnccc3n2Cc2ccc(F)c(F)c2)cn(C)c1=O [II-27]
6.89 | Cc1cc(-c2nc3cnccc3n2Cc2ccccc2F)cn(C)c1=O [II-28]
6.89 | Cc1cc(-c2nc3cnc(N4CCOC[C@@H]4C)cc3n2[C@@H](C)c2ccccn2)cn(C)c1=O [II-29]

SMILES | pIC50
Cc1cc(-c2nc3ccc(C#N)cc3n2Cc2ccccc2)cn(C)c1=O [Example I-23] | 6.72
